20 compounds from US10414763B2 (CANCER RESEARCH TECHNOLOGY LIMITED, priority 2014, dated 2019) can be followed below.

Where only a bound is given, the exact number is not on record here.

For this assay, the target named is T1, full-length human PKCι (Homo sapiens, UniProt P41743).
T1 construct: Recombinant, full-length human PKCι expressed in Sf21 insect cells is also commercially available; purchased EMD Millipore; host or cells: Sf21 insect cells (baculovirus)
T1 sequence (P41743 1-596): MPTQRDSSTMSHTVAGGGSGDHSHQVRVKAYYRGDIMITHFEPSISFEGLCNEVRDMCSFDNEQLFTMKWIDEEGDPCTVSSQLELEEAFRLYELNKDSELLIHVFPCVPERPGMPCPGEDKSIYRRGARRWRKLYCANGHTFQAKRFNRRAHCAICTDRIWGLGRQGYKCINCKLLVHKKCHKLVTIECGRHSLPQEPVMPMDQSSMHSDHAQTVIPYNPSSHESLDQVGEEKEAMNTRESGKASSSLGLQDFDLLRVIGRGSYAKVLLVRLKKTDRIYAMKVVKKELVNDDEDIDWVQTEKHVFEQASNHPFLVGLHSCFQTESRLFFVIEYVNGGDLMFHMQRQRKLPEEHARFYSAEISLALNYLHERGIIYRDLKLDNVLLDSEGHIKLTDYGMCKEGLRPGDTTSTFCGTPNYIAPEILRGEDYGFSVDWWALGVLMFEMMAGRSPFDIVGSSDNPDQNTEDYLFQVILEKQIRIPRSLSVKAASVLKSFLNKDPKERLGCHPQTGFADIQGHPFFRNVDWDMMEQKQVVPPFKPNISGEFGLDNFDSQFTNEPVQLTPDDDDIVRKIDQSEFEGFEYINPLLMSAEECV
Description: PKCι IC50 IMAP fluorescence polarisation assay, full-length enzyme, 150 μM ATP. The format is biochemical. To be noted: read-out: IC50 in IMAP assay against full length PKCi at 150 μM ATP. A digest of the protocol:
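IMAP fluorescence polarisation kinase assay: 15 pM baculovirus-expressed human PKCiota with 100 nM FAM-pseudosubstrate peptide and 150 μM ATP, 1 h at 25 °C. IMAP detection reagent then 2 h at 25 °C before FP measurement. Inhibition referenced to no-compound and no-enzyme controls for IC50 fitting.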
(Fluorescence polarisation rises when a labelled molecule tumbles more slowly, as on binding a larger partner.)
In the case of `CC1(C)CNCC[C@@H]1Nc1nc(-c2ccnc(Nc3cc4ccccn4n3)c2)nc2cncc(C3CC3)c12` [Example 328, 5-Cyclopropyl-N-[(4S)-3,3-dimethyl-4-piperidyl]-2-[2-(pyrazolo[1,5-a]pyridin-2-ylamino)-4-pyridyl]pyrido[3,4-d]pyrimidin-4-amine], the half-inhibitory concentration (IC50) (in general, the midpoint of a concentration-inhibition curve) is less than 100 nM.
With `CC1(C)CNCC[C@@H]1Nc1nc(-c2ccnc(Nc3ncn(-c4ccccc4)n3)c2)nc2cncc(C3CCC3)c12` [Example 329, 5-Cyclobutyl-N-[(4S)-3,3-dimethyl-4-piperidyl]-2-[2-[(1-phenyl-1,2,4-triazol-3-yl)amino]-4-pyridyl]pyrido[3,4-d]pyrimidin-4-amine], the IC50 is less than 100 nM.
Take `c1ccc(-n2cnc(Nc3cc(-c4nc(N5CCNCC5)c5c(C6CCC6)cncc5n4)ccn3)n2)cc1` [Example 330, 4-(5-Cyclobutyl-4-piperazin-1-yl-pyrido[3,4-d]pyrimidin-2-yl)-N-(1-phenyl-1,2,4-triazol-3-yl)pyridin-2-amine]: the concentration for half-maximal inhibition (IC50) is less than 100 nM.
As to `CN(c1nc(-c2ccnc(Nc3nc(F)ccc3F)c2)nc2cncc(C3CC3)c12)[C@H]1CCNCC1(C)C` [Example 331, 5-Cyclopropyl-2-[2-[(3,6-difluoro-2-pyridyl)amino]-4-pyridyl]-N-[(4S)-3,3-dimethyl-4-piperidyl]-N-methyl-pyrido[3,4-d]pyrimidin-4-amine], the IC50 was less than 100 nM.
To `CC1(C)CNCC[C@@H]1Nc1nc(-c2ccnc(Nc3nc4ccc(F)cc4o3)c2)nc2cncc(C3CC3)c12` [Example 332, N-[4-[5-Cyclopropyl-4-[[(4S)-3,3-dimethyl-4-piperidyl]amino]pyrido [3,4-d]pyrirnidin-2-yl]-2-pyridyl]-6-fluoro-1,3-benzoxazol-2-amine] belongs less than 100 nM.
Regarding `CC1(C)CNCC[C@@H]1Nc1nc(-c2ccnc(Nc3ncc(C#N)cc3F)c2)nc2cncc(C3CC3)c12` [Example 333, 6-[[4-[5-Cyclopropyl-4-[[(4S)-3,3-dimethyl-4-piperidyl]amino]pyrido[3,4-d]pyrimidin-2-yl]-2-pyridyl]amino]-5-fluoro-pyridine-3-carbonitrile], the IC50 is less than 100 nM.
Regarding `CC1(C)CNCC[C@@H]1Nc1nc(-c2ccnc(Nc3ncccc3Cl)c2)nc2cncc(C3CCC3)c12` [Example 336, 2-[2-[(3-Chloro-2-pyridyl)amino]-4-pyridyl]-5-cyclobutyl-N-[(4S)-3,3-dimethyl-4-piperidyl]pyrido [3,4-d]pyrimidin-4-amine], the concentration for half-maximal inhibition (IC50) is less than 100 nM.
To `CC1(C)CNCC[C@@H]1Nc1nc(-c2ccnc(Nc3ncc(Cl)cc3Cl)c2)nc2cncc(C3CCC3)c12` [Example 337, 5-Cyclobutyl-2-[2-[(3,5-dichloro-2-pyridyl)amino]-4-pyridyl]-N-[(4S)-3,3-dimethyl-4-piperidyl]pyrido[3,4-d]pyrimidin-4-amine] belongs less than 100 nM; to `CC1(C)CNCC[C@@H]1Nc1nc(-c2ccnc(Nc3nc4ccc(F)cc4o3)c2)nc2cncc(C3CCC3)c12` [Example 338, N-[4-[5-Cyclobutyl-4-[[(4S)-3,3-dimethyl-4-piperidyl]amino]pyrido [3,4-d]pyrimidin-2-yl]-2-pyridyl]-6-fluoro-1,3-benzoxazol-2-amine], less than 100 nM; to `CC1(C)CNCC[C@@H]1Nc1nc(-c2ccnc(Nc3ncccc3Cl)c2)nc2cncc(C3CC3)c12` [Example 339, 2-[2-[(3-Chloro-2-pyridyl)amino]-4-pyridyl]-5-cyclopropyl-N-[(4S)-3,3-dimethyl-4-piperidyl]pyrido[3,4-d]pyrimidin-4-amine], 100 to 1000 nM.
On to `CC1(C)CNCC[C@@H]1Nc1nc(-c2ccnc(Nc3ncc(Cl)cc3Cl)c2)nc2cncc(C3CC3)c12` [Example 340, 5-Cyclopropyl-2-[2-[(3,5-dichloro-2-pyridyl)amino]-4-pyridyl]-N-[(4S)-3,3-dimethyl-4-piperidyl]pyrido[3,4-d]pyrimidin-4-amine], for which the IC50 was less than 100 nM.
In the case of `FC(F)(F)c1cncc2nc(-c3ccnc4[nH]c5ccccc5c34)nc(NC3CCNCC3)c12` [Example 348, Piperidin-4-yl-[2-(9H-pyrido[2,3-b]indol-4-yl)-5-trifluoromethyl-pyrido[3,4-d]pyrimidin-4-yl]-amine], the IC50 was less than 100 nM.
In the case of `CC1(C)CNCC[C@@H]1Nc1nc(-c2ccnc3[nH]c(C(=O)NC4CCCCC4)cc23)nc2cncc(C3CC3)c12` [Example 355, 4-[5-Cyclopropyl-4-((S)-3,3-dimethyl-piperidin-4-ylamino)-pyrido[3,4-d]pyrimidin-2-yl]-1H-pyrrolo[2,3-b]pyridine-2-carboxylic acid cyclohexylamide], the IC50 is less than 100 nM.
As to `c1cncc(-c2cc3c(-c4nc(N5CCC6CNCCC65)c5c(C6CC6)cncc5n4)ccnc3[nH]2)c1` (centres unmarked) [Example 356, 5-Cyclopropyl-4-(octahydro-pyrrolo[3,2-c]pyridin-1-yl)-2-(2-pyridin-3-yl-1H-pyrrolo[2,3-b]pyridin-4-yl)-pyrido[3,4-d]pyrimidine], the IC50 is less than 100 nM.
Take `COCc1ccccc1-c1cc2c(-c3nc(N[C@H]4CCNCC4(C)C)c4c(C5CC5)cncc4n3)ccnc2[nH]1` [Example 357, {5-Cyclopropyl-2-[2-(2-methoxymethyl-phenyl)-1H-pyrrolo[2,3-b]pyridin-4-yl]-pyrido[3,4-d]pyrimidin-4-yl}-((S)-3,3-dimethyl-piperidin-4-yl)-amine]: the IC50 was less than 100 nM.
As to `Fc1ccc(Cl)c(-c2cc3c(-c4nc(N5CCOC6CNCC65)c5c(C6CC6)cncc5n4)ccnc3[nH]2)c1` (centres unmarked) [Example 360, 2-[2-(2-Chloro-5-fluoro-phenyl)-1H-pyrrolo[2,3-b]pyridin-4-yl]-5-cyclopropyl-4-(hexahydro-pyrrolo[3,4-b][1,4]oxazin-4-yl)-pyrido[3,4-d]pyrimidine], the IC50 was less than 100 nM.
On to `CC1(C)CNCC[C@@H]1Nc1nc(-c2ccnc3[nH]c(-c4cc(F)ccc4F)cc23)nc2cncc(C3CC3)c12` [Example 361, {5-Cyclopropyl-2-[2-(2,5-difluoro-phenyl)-1H-pyrrolo[2,3-b]pyridin-4-yl]-pyrido[3,4-d]pyrimidin-4-yl}-((S)-3,3-dimethyl-piperidin-4-yl)-amine], for which the IC50 was less than 100 nM.
As for `Cc1cncc(-c2cc3c(-c4nc(N[C@H]5CCNCC5(C)C)c5c(C6CC6)cncc5n4)ccnc3[nH]2)c1` [Example 362, {5-Cyclopropyl-2-[2-(5-methyl-pyridin-3-yl)-1H-pyrrolo[2,3-b]pyridin-4-yl]-pyrido[3,4-d]pyrimidin-4-yl}-((S)-3,3-dimethyl-piperidin-4-yl)-amine], the figure is less than 100 nM; as for `CC1(C)CNCC[C@@H]1Nc1nc(-c2ccnc3[nH]c(C(=O)N4CCCCCC4)cc23)nc2cncc(C3CC3)c12` [Example 363, Azepan-1-yl-{4-[5-cyclopropyl-4-((S)-3,3-dimethyl-piperidin-4-ylamino)-pyrido[3,4-d]pyrimidin-2-yl]-1H-pyrrolo[2,3-b]pyridin-2-yl}-methanone], less than 100 nM.
As for `Cc1cnc(F)c(-c2cc3c(-c4nc(N[C@H]5CCNCC5(C)C)c5c(C6CC6)cncc5n4)ccnc3[nH]2)c1` [Example 364, {5-Cyclopropyl-2-[2-(2-fluoro-5-methyl-pyridin-3-yl)-1H-pyrrolo[2,3-b]pyridin-4-yl]-pyrido[3,4-d]pyrimidin-4-yl}-((S)-3,3-dimethyl-piperidin-4-yl)-amine], the half-inhibitory concentration (IC50) was less than 100 nM.
